Measurements reported in paper PMC10210183 (ACS Omega, 2023).

Molecular target: eqBChE (Equus caballus, UniProt P81908)
Experiment: biochemical
Conditions: read-out: BChE % Inhibition ± SD @ 1 μM, eqBChE, 1 μM

Sequence of eqBChE (P81908 whole entry): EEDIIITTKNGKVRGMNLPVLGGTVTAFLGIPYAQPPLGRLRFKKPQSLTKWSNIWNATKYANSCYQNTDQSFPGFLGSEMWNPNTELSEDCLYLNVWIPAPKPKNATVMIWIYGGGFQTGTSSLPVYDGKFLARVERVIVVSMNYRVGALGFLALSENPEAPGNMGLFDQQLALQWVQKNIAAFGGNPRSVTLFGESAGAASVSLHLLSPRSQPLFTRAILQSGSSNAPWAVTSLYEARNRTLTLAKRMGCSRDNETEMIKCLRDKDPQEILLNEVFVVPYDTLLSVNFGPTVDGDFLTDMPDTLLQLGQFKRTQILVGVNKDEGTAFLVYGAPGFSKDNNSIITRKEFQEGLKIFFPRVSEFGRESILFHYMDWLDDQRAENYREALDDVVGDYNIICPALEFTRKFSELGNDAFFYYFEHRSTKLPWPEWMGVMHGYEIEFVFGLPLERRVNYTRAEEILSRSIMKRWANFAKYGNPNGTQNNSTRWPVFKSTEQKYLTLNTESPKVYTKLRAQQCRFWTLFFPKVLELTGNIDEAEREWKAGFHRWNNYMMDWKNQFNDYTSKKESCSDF

Structure (SMILES)	inhibition at 1 µM [%]
COc1cc(/C=C/c2cc[n+](Cc3ccccc3)cc2)cc(OC)c1 [Compound 7a, (E)-1-Benzyl-4-(3,5-dimethoxystyryl)pyridin-1-ium bromide]	20
COc1ccc2cc(/C=C/c3cc[n+](Cc4ccccc4)cc3)ccc2c1 [Compound 7aq, (E)-1-Benzyl-4-(2-(6-methoxynaphthalen-2-yl)vinyl)pyridin-1-ium bromide]	60
